Drawing on US9266870B2 (TAISHO PHARMACEUTICAL CO., LTD., priority 2012, dated 2016), this text covers IC50 for 18 compounds.

Structures are written as SMILES. Read-outs that look alike come from different tables or passages of the source.

For experiment [1], the target named is human orexin-1 receptor (hOX1R) (Homo sapiens (Human), UniProt O43613). The experiment in a line: Measurement of orexin antagonistic activity (intracellular Ca2+ fluorescence, FDSS), hOX1R. Particulars: ligand peptide (modified human orexin-A) 300 pM, maximum fluorescence intensity. It is filed as cell-based. The method, then:
(§1) Chinese hamster ovary (CHO) cells forcibly expressing the hOX1R and hOX2R were seeded into a 96 well Black clear bottom plate (Nunc) at 20,000 cells per well, which were cultured in Ham's F-12 medium containing 0.1 mM MEM non-essential amino acids, 0.5 mg/ml G418, 10% fetal bovine serum (all by Invitrogen) for 16 hours under the conditions of 37° C., 5% CO2. After removing the medium, 100 μL of 0.5 μM Fluo-4AM ester (Dojin) in an assay buffer (25 mM HEPES (Dojin), Hank's balanced salt solution (Invitrogen), 0.1% bovine serum albumin, 2.5 mM probenecid, 200 μg/ml Amaranth (all by Sigma-Aldrich), pH 7.4) was added and the cells were incubated for 60 minutes at 37° C., 5% CO2. After removing the assay buffer containing fluo-3AM ester, the test compound was dissolved in dimethyl sulfoxide to be 10 mM and diluted with the assay buffer, 150 μL of which was added and incubated for 30 minutes.
(§2) The reaction was measured for the fluorescence intensity of each well every second for 3 minutes using Functional Drug Screening System (FDSS; Hamamatsu Photonics K.K.), and the antagonistic activity was determined using the maximum fluorescence intensity as the indicator of intracellular Ca2+ concentration.

Experiment [2] addresses human orexin-2 receptor (hOX2R) (Homo sapiens (Human), UniProt O43614). In words: Measurement of orexin antagonistic activity (intracellular Ca2+ fluorescence, FDSS), hOX2R. It is filed as cell-based. The method, then:
as §1, with “The antagonistic activities of the test compounds on human orexin-1 receptor (hOX1R) and orexin-2 receptor (hOX2R) were measured by modifying from the method described in literature (Toshikatsu Okumura et al., Biochemical and Biophysical Research Communications 280, 976-981, 2001). Chinese” for “Chinese”
as §2

[3] abbreviates: CHO cells forcibly expressing hOX1R, read-out: IC50 Value OX1.
Where [4] appears, read: CHO cells forcibly expressing hOX2R, ligand peptide (modified human orexin-A) 3 nM, maximum fluorescence intensity, read-out: IC50 Value OX2.

Chain of human orexin-1 receptor (hOX1R) (O43613 whole entry): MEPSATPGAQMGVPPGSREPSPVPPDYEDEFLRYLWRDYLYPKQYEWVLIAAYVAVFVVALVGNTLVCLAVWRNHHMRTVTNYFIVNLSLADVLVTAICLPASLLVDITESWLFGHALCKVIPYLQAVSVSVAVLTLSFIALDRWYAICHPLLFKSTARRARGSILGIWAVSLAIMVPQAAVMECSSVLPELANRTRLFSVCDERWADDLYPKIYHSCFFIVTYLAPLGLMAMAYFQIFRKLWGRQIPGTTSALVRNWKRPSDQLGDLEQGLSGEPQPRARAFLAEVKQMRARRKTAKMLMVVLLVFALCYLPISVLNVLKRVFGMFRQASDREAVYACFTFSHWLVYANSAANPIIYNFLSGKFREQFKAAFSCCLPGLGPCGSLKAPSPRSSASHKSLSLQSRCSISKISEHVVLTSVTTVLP
Chain of human orexin-2 receptor (hOX2R) (O43614 whole entry): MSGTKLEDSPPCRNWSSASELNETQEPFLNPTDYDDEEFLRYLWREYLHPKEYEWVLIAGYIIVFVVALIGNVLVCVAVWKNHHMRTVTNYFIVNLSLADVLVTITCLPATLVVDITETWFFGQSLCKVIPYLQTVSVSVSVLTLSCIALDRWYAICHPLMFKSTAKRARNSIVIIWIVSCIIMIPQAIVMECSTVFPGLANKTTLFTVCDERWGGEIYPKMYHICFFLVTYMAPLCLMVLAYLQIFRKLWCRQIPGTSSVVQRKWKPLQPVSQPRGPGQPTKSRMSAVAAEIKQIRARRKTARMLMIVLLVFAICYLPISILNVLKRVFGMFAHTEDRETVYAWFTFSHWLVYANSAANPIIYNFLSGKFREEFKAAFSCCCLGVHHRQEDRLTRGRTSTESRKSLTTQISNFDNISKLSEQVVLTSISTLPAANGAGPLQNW

For orientation: IC50 means the concentration that gives 50% inhibition. For the compound `Cc1ccc(-n2nccn2)c(C(=O)N2CCOC2Cn2cc(-c3ccc(F)cc3)cn2)n1` (racemic) [Example 23, (±)-(2-[[4-(4-fluorophenyl)-1H-pyrazol-1-yl]methyl]-1,3-oxazolidin-3-yl)[6-methyl-3-(2H-1,2,3-triazol-2-yl)pyridin-2-yl]methanone], the half-maximal inhibitory concentration (IC50) amounted to 96.3 nM in experiment [1] (setting [3]) and 112 nM in experiment [2] (setting [4]).
Regarding `Cc1ccc(-c2ncccn2)c(C(=O)N2CCCOC2Cc2noc(-c3ccc(F)cn3)n2)c1` (racemic) [Example 33, (±)-(2-[[5-(5-fluoropyridin-2-yl)-1,2,4-oxadiazol-3-yl]methyl]-1,3-oxazinan-3-yl) [5-methyl-2-(pyrimidin-2-yl)phenyl]methanone], the half-inhibitory concentration (IC50) in experiment [1] (setting [3]) turned out to be 3590 nM; in experiment [2] (setting [4]) it was 4540 nM.
The corresponding values for `Cc1ccc(-c2ncccn2)c(C(=O)N2CCCOC2Cc2cnn(-c3ccc(F)cn3)c2)c1` (racemic) [Example 42, (±)-[2-[[1-(5-fluoropyridin-2-yl)-1H-pyrazol-4-yl]methyl]-1,3-oxazinan-3-yl] [5-methyl-2-(pyrimidin-2-yl)phenyl]methanone] are 17.2 nM and 20.4 nM.
On to `Cc1ccc(-n2nccn2)c(C(=O)N2CCOC2Cn2cc(-c3ccc(F)cn3)cn2)c1` (single isomer, unassigned; (-)) [Example 2, (−)-(2-[[4-(5-fluoropyridin-2-yl)-1H-pyrazol-1-yl]-methyl]-1,3-oxazolidin-3-yl)[5-methyl-2-(2H-1,2,3-triazol-2-yl)phenyl] methanone], for which the IC50 stood at 14.3 nM in experiment [1] (setting [3]) and 18.6 nM in experiment [2] (setting [4]).
Consider `Cc1ccc(-n2nccn2)c(C(=O)N2CCCOC2Cn2ccc(-c3ccc(F)cn3)n2)c1` (single isomer, unassigned; (-)) [Example 3, (−)-(2-[[3-(5-fluoropyridin-2-yl)-1H-pyrazol-1-yl]-methyl]-1,3-oxazinan-3-yl)[5-methyl-2-(2H-1,2,3-triazol-2-yl)phenyl] methanone], for which the IC50 in experiment [1] (IC50 Value OX1, CHO cells forcibly expressing hOX1R) is 0.7 nM; in experiment [2], 1.2 nM.
Take `Cc1ccc(-n2nccn2)c(C(=O)N2CCOC2Cn2ccc(-c3ccc(F)cc3)n2)n1` (single isomer, unassigned; (-)) [Example 26, (−)-(2-[[3-(4-fluorophenyl)-1H-pyrazol-1-yl]methyl]-1,3-oxazolidin-3-yl) [6-methyl-3-(2H-1,2,3-triazol-2-yl)pyridin-2-yl] methanone]: the half-inhibitory concentration (IC50) turned out to be 21.7 nM in experiment [1] (setting [3]) and 59.1 nM in experiment [2] (setting [4]).
The like results for `Cc1ccc(-n2nccn2)c(C(=O)N2CCCOC2Cn2ccc(-c3ccc(F)cc3)n2)n1` (single isomer, unassigned; (-)) [Example 27, (−)-(2-[[3-(4-fluorophenyl)-1H-pyrazol-1-yl]methyl]-1,3-oxazinan-3-yl)[6-methyl-3-(2H-1,2,3-triazol-2-yl)pyridin-2-yl]methanone] were, in that order, 0.9 nM and 3 nM.
Regarding `Cc1ccc(-c2ncccn2)c(C(=O)N2CCCOC2Cn2ccc(-c3ccc(F)cc3)n2)n1` (single isomer, unassigned; (-)) [Example 28, (−)-(2-[[3-(4-fluorophenyl)-1H-pyrazol-1-yl]methyl]-1,3-oxazinan-3-yl)[6-methyl-3-(pyrimidin-2-yl)pyridin-2-yl] methanone], the IC50 in experiment [1] (setting [3]) worked out at 2.4 nM; in experiment [2] (setting [4]), 4 nM.
The like results for `O=C(c1cc(F)ccc1-n1nccn1)N1CCCOC1Cn1ccc(-c2ccc(F)cn2)n1` (single isomer, unassigned; (-)) [Example 29, (−)-(2-[[3-(5-fluoropyridin-2-yl)-1H-pyrazol-1-yl]methyl]-1,3-oxazinan-3-yl)[5-fluoro-2-(2H-1,2,3-triazol-2-yl)phenyl]methanone] were, in that order, 3.2 nM and 1.2 nM.
The corresponding values for `Cc1ccc(-c2ncccn2)c(C(=O)N2CCCOC2Cn2ccc(-c3ccc(F)cn3)n2)c1` (single isomer, unassigned; (-)) [Example 30] are 2.6 nM and 3 nM.
The like results for `Cc1ccc(-n2nccn2)c(C(=O)N2CCCOC2Cn2cc(-c3ccc(F)cc3)cn2)n1` (single isomer, unassigned; (-)) [Example 31, (−)-(2-[[4-(4-fluorophenyl)-1H-pyrazol-1-yl]methyl]-1,3-oxazinan-3-yl) [6-methyl-3-(2H-l,2,3-triazol-2-yl)pyridin-2-yl] methanone] were, in that order, 10.9 nM and 7.3 nM.
Regarding `Cc1ccc(-c2ncccn2)c(C(=O)N2CCCOC2Cn2cc(-c3ccc(F)cc3)cn2)n1` (single isomer, unassigned; (-)) [Example 32, (−)-(2-[[4-(4-fluorophenyl)-1H-pyrazol-1-yl]methyl]-l,3-oxazinan-3-yl)[6-methyl-3-(pyrimidin-2-yl)pyridin-2-yl] methanone], the half-maximal inhibitory concentration (IC50) was 34.4 nM in experiment [1] (setting [3]) and 22.6 nM in experiment [2] (setting [4]).
The like results for `O=C(c1cc(F)ccc1-c1ncccn1)N1CCCOC1Cn1ccc(-c2ccc(F)cn2)n1` (single isomer, unassigned; (-)) [Example 34, (−)-[2-[[3-(5-fluoropyridin-2-yl)-1H-pyrazol-1-yl]methyl]-l,3-oxazinan-3-yl] [5-fluoro-2-(pyrimidin-2-yl)phenyl]methanone] were, in that order, 2.2 nM and 6.2 nM.
Take `Cc1ccc(-n2nccn2)c(C(=O)N2CCCOC2Cc2noc(-c3ccc(F)cn3)n2)c1` (single isomer, unassigned; (-)) [Example 36, (−)-[2-[[5-(5-fluoropyridin-2-yl)-1,2,4-oxadiazol-3-yl]methyl]-1,3-oxazinan-3-yl] [5-methyl-2-(2H-1,2,3-triazol-2-yl)phenyl] methanone]: the IC50 in experiment [1] (setting [3]) turned out to be 3.8 nM; in experiment [2] (setting [4]), 6.9 nM.
As to `Cc1ccc(-n2nccn2)c(C(=O)N2CCCOC2Cc2noc(-c3ccc(F)cc3)n2)c1` (single isomer, unassigned; (-)) [Example 37, (−)-[2-[[5-(4-fluorophenyl)-1,2,4-oxadiazol-3-yl]methyl]-1,3-oxazinan-3-yl] [5-methyl-2-(2H-1,2,3-triazol-2-yl)phenyl] methanone], the figures for the half-inhibitory concentration (IC50) in experiment [1] (setting [3]) and in experiment [2] (setting [4]) were 1.1 nM and 1.7 nM, respectively.
The corresponding values for `Cc1ccc(-n2nccn2)c(C(=O)N2CCCOC2Cc2noc(-c3ccc(F)cc3)n2)n1` (single isomer, unassigned; (-)) [Example 38, (−)-[2-[[5-(4-fluorophenyl)-1,2,4-oxadiazol-3-yl]methyl]-1,3-oxazinan-3-yl] [6-methyl-3-(2H-1,2,3-triazol-2-yl)pyridin-2-yl] methanone] are 2.1 nM and 7.3 nM.
In the case of `Cc1ccc(-c2ncccn2)c(C(=O)N2CCCOC2Cn2ccc(-c3ccc(F)cc3)n2)c1` (single isomer, unassigned; (-)) [Example 41, (−)-[2-{[3-(4-Fluorophenyl)-1H-pyrazol-1-yl]methyl}-1,3-oxazinan-3-yl][5-methyl-2-(pyrimidin-2-yl)phenyl]methanone], the IC50 in experiment [1] (setting [3]) and in experiment [2] (setting [4]) was 1 nM throughout.
As to `Cc1ccc(-n2nccn2)c(C(=O)N2CCOC2Cc2ccn(-c3ccc(F)cn3)n2)c1` (single isomer, unassigned; (-)) [Example 45, (−)-[2-{[1-(5-Fluoropyridin-2-yl)-1H-pyrazol-3-yl]methyl}-1,3-oxazolidin-3-yl][5-methyl-2-(2H-1,2,3-triazol-2-yl)phenyl]methanone], the IC50 worked out at 2.7 nM in experiment [1] (setting [3]) and 12.1 nM in experiment [2] (setting [4]).
